Laboratory results taken from publication PMC9848257, “Design and synthesis of novel rigid dibenzo[b,f]azepines through ring closure technique as promising anticancer candidates against leukaemia and acting as selective topoisomerase II inhibitors and DNA intercalators” (Journal of Enzyme Inhibition and Medicinal Chemistry, 2023).

Tests used:
HL-60(TB) = assay: NCI-60 one-dose screen, HL-60(TB); type: cell-based; conditions: Homo sapiens, leukaemia, single dose 10 μM, read-out: Growth inhibition %
Method: (§1) Anti-proliferative effects of the counterparts 4a–g and 5a–g were screened against 60 human cancer cell lines, following the Developmental Therapeutics Program protocol, National Cancer Institute[35].
(§2) The anti-tumour activity of the fourteen synthesised congeners was investigated at the NCI against a panel of 60 cancer cell lines (NCI-60 Cell One-Dose Screen). The tested dibenzo[b,f]azepine derivatives were screened at a single dose level (10 μM), Table 1.

MOLT-4 = assay: NCI-60 one-dose screen, MOLT-4; type: cell-based; conditions: Homo sapiens; MOLT-4, leukaemia; single dose 10 μM; read-out: Growth inhibition %
Method: as §1, §2

RPMI-8226 = assay: NCI-60 one-dose screen, RPMI-8226; type: cell-based; conditions: Homo sapiens; RPMI-8226, leukaemia; single dose 10 μM; read-out: Growth inhibition %
Method: as §1, §2

SR = assay: NCI-60 one-dose screen, SR; type: cell-based; conditions: Homo sapiens, leukaemia, single dose 10 μM, read-out: Growth inhibition %
Method: as §1, §2

A549-ATCC = assay: NCI-60 one-dose screen, A549-ATCC; type: cell-based; conditions: Homo sapiens, non-small cell lung cancer, single dose 10 μM, read-out: Growth inhibition %
Method: as §1, §2

EKVX = assay: NCI-60 one-dose screen, EKVX; type: cell-based; conditions: Homo sapiens, non-small cell lung cancer, single dose 10 μM, read-out: Growth inhibition %
Method: as §1, §2

HOP-92 = assay: NCI-60 one-dose screen, HOP-92; type: cell-based; conditions: Homo sapiens; HOP-92, non-small cell lung cancer; single dose 10 μM; read-out: Growth inhibition %
Method: as §1, §2

NCI-H460 = assay: NCI-60 one-dose screen, NCI-H460; type: cell-based; conditions: Homo sapiens; NCI-H460, non-small cell lung cancer; single dose 10 μM; read-out: Growth inhibition %
Method: as §1, §2

HCT-116 = assay: NCI-60 one-dose screen, HCT-116; type: cell-based; conditions: Homo sapiens; HCT-116, colon cancer; single dose 10 μM; read-out: Growth inhibition %
Method: as §1, §2

HT29 = assay: NCI-60 one-dose screen, HT29; type: cell-based; conditions: Homo sapiens, HT-29; HT29, colon cancer; single dose 10 μM; read-out: Growth inhibition %
Method: as §1, §2

KM12 = assay: NCI-60 one-dose screen, KM12; type: cell-based; conditions: Homo sapiens; KM12, colon cancer; single dose 10 μM; read-out: Growth inhibition %
Method: as §1, §2

SW-620 = assay: NCI-60 one-dose screen, SW-620; type: cell-based; conditions: Homo sapiens; SW-620, colon cancer; single dose 10 μM; read-out: Growth inhibition %
Method: as §1, §2

SF-268 = assay: NCI-60 one-dose screen, SF-268; type: cell-based; conditions: Homo sapiens; SF-268, CNS cancer; single dose 10 μM; read-out: Growth inhibition %
Method: as §1, §2

SF-295 = assay: NCI-60 one-dose screen, SF-295; type: cell-based; conditions: Homo sapiens; SF-295, CNS cancer; single dose 10 μM; read-out: Growth inhibition %
Method: as §1, §2

SF-539 = assay: NCI-60 one-dose screen, SF-539; type: cell-based; conditions: Homo sapiens; SF-539, CNS cancer; single dose 10 μM; read-out: Growth inhibition %
Method: as §1, §2

LOX IMVI = assay: NCI-60 one-dose screen, LOX IMVI; type: cell-based; conditions: Homo sapiens, melanoma, single dose 10 μM, read-out: Growth inhibition %
Method: as §1, §2

M14 = assay: NCI-60 one-dose screen, M14; type: cell-based; conditions: Homo sapiens; M14, melanoma; single dose 10 μM; read-out: Growth inhibition %
Method: as §1, §2

SK-MEL-28 = assay: NCI-60 one-dose screen, SK-MEL-28; type: cell-based; conditions: Homo sapiens; SK-MEL-28, melanoma; single dose 10 μM; read-out: Growth inhibition %
Method: as §1, §2

OVCAR-3 = assay: NCI-60 one-dose screen, OVCAR-3; type: cell-based; conditions: Homo sapiens; OVCAR-3, ovarian cancer; single dose 10 μM; read-out: Growth inhibition %
Method: as §1, §2

A498 = assay: NCI-60 one-dose screen, A498; type: cell-based; conditions: Homo sapiens; A498, renal cancer; single dose 10 μM; read-out: Growth inhibition %
Method: as §1, §2

SN12C = assay: NCI-60 one-dose screen, SN12C; type: cell-based; conditions: Homo sapiens, renal cancer, single dose 10 μM, read-out: Growth inhibition %
Method: as §1, §2

PC-3 = assay: NCI-60 one-dose screen, PC-3; type: cell-based; conditions: Homo sapiens; PC-3, prostate cancer; single dose 10 μM; read-out: Growth inhibition %
Method: as §1, §2

MCF-7 = assay: NCI-60 one-dose screen, MCF-7; type: cell-based; conditions: Homo sapiens, MCF7; MCF-7, breast cancer; single dose 10 μM; read-out: Growth inhibition %
Method: as §1, §2

T-47D = assay: NCI-60 one-dose screen, T-47D; type: cell-based; conditions: Homo sapiens, T47D, breast cancer, single dose 10 μM, read-out: Growth inhibition %
Method: as §1, §2

MDA-MB-468 = assay: NCI-60 one-dose screen, MDA-MB-468; type: cell-based; conditions: Homo sapiens; MDA-MB-468, breast cancer; single dose 10 μM; read-out: Growth inhibition %
Method: as §1, §2

topoisomerase II = assay: Topoisomerase II inhibitory assay; type: biochemical; conditions: for IC50: in vitro, doxorubicin co-assayed as reference
Method: Therefore, following the procedure reported by Patra et al., the topoisomerase II activity was evaluated.

leukaemia SR cells = assay: Anti-proliferative effect against SR cell line (MTT assay); type: cell-based
Method: The anti-proliferative effect of the 5e counterpart against the SR cell line was estimated using the MTT assay protocol.
Depending on the previous results, the cytotoxic activity of the designed candidate 5e was then evaluated against leukaemia SR cells. Doxorubicin was also evaluated as a reference drug.

[1] = Cytotoxic effect against normal cell line; type: cell-based; conditions: human, normal cell line PSC-800-011; read-out: Cytotoxicity IC50, PSC-800-011
Method: Following, the cytotoxic effect of compound 5e against a normal cell line, PSC-800–011, was also assigned to evaluate the selectivity of the compound towards the cancer cell lines. […] However, the selectivity index (SI) of compound 5e was also calculated to confirm its selectivity. It was known that any sample that has an SI value higher than 3 will be considered to have high selectivity.

SMILES	inhibition at 10 µM (HL-60(TB)) [%]	inhibition at 10 µM (MOLT-4) [%]	inhibition at 10 µM (RPMI-8226) [%]	inhibition at 10 µM (SR) [%]	inhibition at 10 µM (A549-ATCC) [%]	inhibition at 10 µM (EKVX) [%]	inhibition at 10 µM (HOP-92) [%]	inhibition at 10 µM (NCI-H460) [%]	inhibition at 10 µM (HCT-116) [%]	inhibition at 10 µM (HT29) [%]	inhibition at 10 µM (KM12) [%]	inhibition at 10 µM (SW-620) [%]	inhibition at 10 µM (SF-268) [%]	inhibition at 10 µM (SF-295) [%]	inhibition at 10 µM (SF-539) [%]	inhibition at 10 µM (LOX IMVI) [%]	inhibition at 10 µM (M14) [%]	inhibition at 10 µM (SK-MEL-28) [%]	inhibition at 10 µM (OVCAR-3) [%]	inhibition at 10 µM (A498) [%]	also measured
O=[N+]([O-])c1ccc(-c2nnc(N3c4ccccc4C=Cc4ccccc43)o2)cc1 [Compound 5e, 2-(5 h-Dibenzo[b,f]azepin-5-yl)-5–(4-nitrophenyl)-1,3,4-oxadiazole]	30.1	19.4	< 10	30.1	16.5	< 10	22.8	1.84	< 10	< 10	< 10	< 10	16.1	< 10	< 10	< 10	< 10	< 10	< 10	14.8	inhibition at 10 µM (SN12C): < 10%; inhibition at 10 µM (PC-3): 24.6%; inhibition at 10 µM (MCF-7): 17.4%; inhibition at 10 µM (T-47D): 18.4%; inhibition at 10 µM (MDA-MB-468): 11.4%; Percentage of topoisomerase II inhibition (topoisomerase II; at the concentration of 100 µM (Figure 3A)): 89%; IC50 (topoisomerase II): 6.36 µM; IC50 (leukaemia SR cells; Homo sapiens, leukaemia SR cells, unit as in head of Table 3, read-out: Cytotoxicity IC50, SR): 13.1 ± 0.62 µM; SI (selectivity index) (leukaemia SR cells; normal cell line PSC-800-011 versus SR): 3.36; IC50 [1]: 43.9 ± 2.68 µM
Cc1ccc(-c2nnc(N3c4ccccc4C=Cc4ccccc43)o2)cc1 [Compound 5d, 2-(5 h-Dibenzo[b,f]azepin-5-yl)-5-(p-tolyl)-1,3,4-oxadiazole]	33.8	21	52	60.6	12.4	< 10	14.3	58.6	45.8	< 10	13.1	< 10	10.1	22	< 10	25.6	< 10	< 10	< 10	< 10	inhibition at 10 µM (SN12C): < 10%; inhibition at 10 µM (PC-3): 41.4%; inhibition at 10 µM (MCF-7): 15.7%; inhibition at 10 µM (T-47D): < 10%; inhibition at 10 µM (MDA-MB-468): < 10%; IC50 (topoisomerase II): 16.8 µM
C1=Cc2ccccc2N(c2nnc(Cc3ccccc3)o2)c2ccccc21 [Compound 5g, 2-Benzyl-5-(5H-dibenzo[b,f]azepin-5-yl)-1,3,4-oxadiazole]	10.6	10.9	27.8	17.6	24.7	2.24	< 10	17.4	31.4	< 10	< 10	19.7	10.7	< 10	11.5	< 10	< 10	< 10	12.3	< 10	inhibition at 10 µM (SN12C): < 10%; inhibition at 10 µM (PC-3): < 10%; inhibition at 10 µM (MCF-7): < 10%; inhibition at 10 µM (T-47D): 12%; inhibition at 10 µM (MDA-MB-468): 15.6%; IC50 (topoisomerase II): 18.9 µM
